# Results as given in patent publication US9476099B2 (TRUSTEES OF DARTMOUTH COLLEGE, priority 2012, dated 2016).
# System: NT2/D1-R1 control and DNMT3B knockdown cells
# Assay: Genome-wide expression analysis with PAM clusters, control and DNMT3B knockdown cells (Tables 8-14)
# Conditions: 10 nM, 3 days; NT2/D1-R1
structure (smiles),measurement,value
"Nc1ncn([C@H]2C[C@H](O)[C@@H](CO)O2)c(=O)n1 [decitabine, 5-aza-deoxycytidine]",Cluster 1: genes down-regulated by low dose decitabine in control cells but not in DNMT3B knockdown cells,129 genes
same,Cluster 2: genes induced by decitabine only in control cells and not in sh-DNMT3B cells,337 genes
